Source: US10201531B2, “Indazolyl-oxo-isothiazole compounds” (MOCHIDA PHARMACEUTICAL CO., LTD., priority 2015, dated 2019)

Test system: Nrf2
Assay: Evaluation of Nrf2 activation ability (Nrf2d-LacZ / Keap1 HEK293 reporter, Beta-Glo luminescence)
Assay type: cell-based, human
Details: Pharmacological Test Example 1, rated A/B/C
Method: HEK293 cells constantly expressing Nrf2d-LacZ (human Nrf2 degron region fused to LacZ; Hirotsu et al, Genes to Cell, Vol. 16, pp. 406-415 (2011)) and human Keap1 were seeded 7,000 cells/27 μl/well on 384-well plates (Corning 384 Well Flat Clear Bottom White Polystyrene TC-Treated Microplates, Cat. #3707), and cultured overnight at 5% CO2, 37° C. in DMEM medium containing 10% FBS, 100 U/mL penicillin and 100 μg/mL streptomycin. 3 μL/well of a 0.1% DMSO solution of the compound of the invention was added to the cells, which were then cultured for 3 hours at 5% CO2, 37° C. Beta-Glo® reagent (Promega, Beta-Glo Assay System, Cat. #E4740) was added 15 μL/well and incubated for 1 hour at room temperature, and luminescence intensity was measured with a luminometer. Using CDDO-Im as a standard, Nrf2 activation ability was calculated given 100% as the luminescence under stimulus with 100 nM CDDO-Im.

EC50	SMILES
< 1000 nM	COc1ccc(-c2cnn(-c3cc(O)n[s+]3[O-])c2)cn1 (centres unmarked) [Example 392]
< 1000 nM	[O-][s+]1nc(O)cc1-n1cc(-c2ccc(C3CC3)nc2)cn1 (centres unmarked) [Example 323]
1000 to 5000 nM	[O-][s+]1nc(O)cc1-n1cc(-c2ccc(-c3ccccc3)cc2)cn1 (centres unmarked) [Example 327]
1000 to 5000 nM	Cc1cnc(-c2cnn(-c3cc(O)n[s+]3[O-])c2)c(C)n1 (centres unmarked) [Example 421]
< 1000 nM	COc1ccc(-c2ccc(-c3cnn(-c4cc(O)n[s+]4[O-])c3)cn2)cn1 (centres unmarked) [Example 444]
1000 to 5000 nM	CCOC(=O)C1CC=C(c2c(C)nn(-c3cc(O)n[s+]3[O-])c2C)CC1 (centres unmarked) [Example 317]
< 1000 nM	[O-][s+]1nc(O)cc1-n1cc(-c2cccc3cccnc23)cn1 (centres unmarked) [Example 382]
< 1000 nM	[O-][s+]1nc(O)cc1-n1cc(-c2cccc(-c3ccccc3)c2)cn1 (centres unmarked) [Example 326]
1000 to 5000 nM	[O-][s+]1nc(O)cc1-n1cc(-c2cccc3cnccc23)cn1 (centres unmarked) [Example 343]
< 1000 nM	[O-][s+]1nc(O)cc1-n1cc(-c2ccc(Oc3ccccc3)cc2)cn1 (centres unmarked) [Example 377]
1000 to 5000 nM	[O-][s+]1nc(O)cc1-n1cc(-c2ccccc2Oc2ccccc2)cn1 (centres unmarked) [Example 335]
< 1000 nM	[O-][s+]1nc(O)cc1-n1cc(-c2ccc3ncccc3c2)cn1 (centres unmarked) [Example 350]
< 1000 nM	[O-][s+]1nc(O)cc1-n1cc(C2=Cc3ccccc3C2)cn1 (centres unmarked) [Example 384]
< 1000 nM	[O-][s+]1nc(O)cc1-n1cc(-c2ccc(Oc3ccccc3)cc2)cn1 (centres unmarked) [Example 333]
< 1000 nM	COc1nc(-c2ccnc(N3CCCC3)c2)ccc1-c1cnn(-c2cc(O)n[s+]2[O-])c1 (centres unmarked) [Example 454]
1000 to 5000 nM	CC1(C)C(=O)N(CC2CC2)c2ccc(-c3cnn(-c4cc(O)n[s+]4[O-])c3)cc21 (centres unmarked) [Example 430]
1000 to 5000 nM	Cn1c(=O)n(-c2cnn(-c3cc(O)n[s+]3[O-])c2)c2ccccc21 (centres unmarked) [Example 419]
< 1000 nM	COc1cc(-c2cnn(-c3cc(O)n[s+]3[O-])c2)ccn1 (centres unmarked) [Example 404]
1000 to 5000 nM	O=c1oc2cc(-c3cnn(-c4cc(O)n[s+]4[O-])c3)ccc2n1CC1CC1 (centres unmarked) [Example 429]

Same assay, conditions: rated A/B/C, Pharmacological Test Example 1

EC50	SMILES
1000 to 5000 nM	[O-][s+]1nc(O)cc1-n1cc2c(n1)CN(Cc1ccccc1)C2 (single isomer, unassigned) [Example 255]
1000 to 5000 nM	COc1cc(-c2cncc(C)c2)cc2c1cnn2-c1cc(O)n[s+]1[O-] (centres unmarked) [Example 195]
< 1000 nM	COc1cc(-c2ccnc(N3CCCC3)c2)cc2c1cnn2-c1cc(O)n[s+]1[O-] (centres unmarked) [Example 194]
< 1000 nM	CN1CCOc2nc(-c3ccc4c(cnn4-c4cc(O)n[s+]4[O-])c3)cnc21 (centres unmarked) [Example 210]
1000 to 5000 nM	CC(C)(C)OC(=O)N1CCc2cn(-c3cc(O)n[s+]3[O-])nc2CC1 (centres unmarked) [Example 244]
1000 to 5000 nM	[O-][s+]1nc(O)cc1-n1cc2c(n1)CN(CC1CCCCC1)C2 (single isomer, unassigned) [Example 275]
1000 to 5000 nM	COc1cc(C)c2cnn(-c3cc(O)n[s+]3[O-])c2c1 (centres unmarked) [Example 196]
< 1000 nM	CN1CCOc2nc(-c3ccc4c(cnn4-c4cc(O)n[s+]4[O-])c3)ncc21 (centres unmarked) [Example 215]
< 1000 nM	[O-][s+]1nc(O)cc1-n1ncc2c1CN(CC1CCCCC1)C2 (single isomer, unassigned) [Example 273]
1000 to 5000 nM	COc1nn(-c2cc(O)n[s+]2[O-])c2ccc(-c3cnc4c(c3)OCCN4C)cc12 (centres unmarked) [Example 223]
< 1000 nM	[O-][s+]1nc(O)cc1-n1ncc2cc(-c3cnc4c(c3)OCCCCN4)ccc21 (centres unmarked) [Example 206]
< 1000 nM	CN1CCOc2cc(-c3ccc4c(cnn4-c4cc(O)n[s+]4[O-])c3)ncc21 (centres unmarked) [Example 222]
< 1000 nM	[O-][s+]1nc(O)cc1-n1ncc2cc(-c3cnc4c(c3)OCCO4)ccc21 (centres unmarked) [Example 220]
< 1000 nM	CN1CCOc2cc(-c3cc4cnn(-c5cc(O)n[s+]5[O-])c4cn3)cnc21 (single isomer, unassigned) [Example 243]

The next lines start with the molecule.

SMILES	EC50
Cc1cncc(-c2ccc3c(cnn3-c3cc(O)n[s+]3[O-])c2)c1 (centres unmarked) [Example 56]	< 1000 nM
[O-][s+]1nc(O)cc1-n1ncc2cc(Oc3ccccc3)ccc21 (centres unmarked) [Example 148]	1000 to 5000 nM
Cc1cncc(-c2ccc3c(cnn3-c3cc(O)n[s+]3[O-])c2)n1 (centres unmarked) [Example 118]	1000 to 5000 nM
[O-][s+]1nc(O)cc1-n1ncc2cc(-c3ccc(N4CCOCC4)nc3)ccc21 (centres unmarked) [Example 126]	1000 to 5000 nM
[O-][s+]1nc(O)cc1-n1ncc2c(-c3ccc(N4CCCC4)nc3)cccc21 (centres unmarked) [Example 107]	1000 to 5000 nM
[O-][s+]1nc(O)cc1-n1ncc2cc(-c3ccccc3Cl)ccc21 (centres unmarked) [Example 40]	< 1000 nM
[O-][s+]1nc(O)cc1-n1ncc2cc(-c3ccc(Cl)cn3)ccc21 (centres unmarked) [Example 121]	1000 to 5000 nM
CN1CC(C)(C)Oc2cc(-c3ccc4c(cnn4-c4cc(O)n[s+]4[O-])c3)cnc21 (centres unmarked) [Example 188]	< 1000 nM
[O-][s+]1nc(O)cc1-n1ncc2cc(OCc3cccnc3)ccc21 (centres unmarked) [Example 144]	1000 to 5000 nM
[O-][s+]1nc(O)cc1-n1ncc2cc(-c3cnc4ccoc4c3)ccc21 (centres unmarked) [Example 61]	< 1000 nM
[O-][s+]1nc(O)cc1-n1ncc2cc(-c3ccccc3)ccc21 (centres unmarked) [Example 28]	1000 to 5000 nM
[O-][s+]1nc(O)cc1-n1ncc2c(-c3cccnc3)cccc21 (centres unmarked) [Example 92]	1000 to 5000 nM
COc1cc(Br)cc2c1cnn2-c1cc(O)n[s+]1[O-] (centres unmarked) [Example 177]	< 1000 nM
[O-][s+]1nc(O)cc1-n1ncc2cc(-c3cn[nH]c3)ccc21 (centres unmarked) [Example 51]	5000 to 10000 nM
[O-][s+]1nc(O)cc1-n1ncc2cc(-c3cnc4c(c3)OCCN4)ccc21 (centres unmarked) [Example 152]	1000 to 5000 nM
O=C(NC1CC1)c1ccc(F)c(-c2ccc3c(cnn3-c3cc(O)n[s+]3[O-])c2)c1 (centres unmarked) [Example 63]	5000 to 10000 nM
CC(C)N1CCOc2cc(-c3ccc4c(cnn4-c4cc(O)n[s+]4[O-])c3)cnc21 (centres unmarked) [Example 8]	< 1000 nM
Cc1ccc2c(cnn2-c2cc(O)n[s+]2[O-])c1 (centres unmarked) [Example 25]	5000 to 10000 nM
[O-][s+]1nc(O)cc1-n1ncc2ccc(C3=CCC(F)(F)CC3)cc21 (centres unmarked) [Example 102]	1000 to 5000 nM
[O-][s+]1nc(O)cc1-n1ncc2cc(-c3ccc(C4CC4)nc3)ccc21 (centres unmarked) [Example 46]	< 1000 nM
COc1ncccc1-c1ccc2c(cnn2-c2cc(O)n[s+]2[O-])c1 (centres unmarked) [Example 124]	< 1000 nM
[O-][s+]1nc(O)cc1-n1ncc2cc(-c3cccc(C(F)(F)F)n3)ccc21 (centres unmarked) [Example 130]	< 1000 nM
[O-][s+]1nc(O)cc1-n1ncc2cc(C(F)(F)F)ccc21 (centres unmarked) [Example 14]	< 1000 nM
CC1COc2cc(-c3ccc4c(cnn4-c4cc(O)n[s+]4[O-])c3)cnc2N1 (centres unmarked) [Example 10]	< 1000 nM
Cc1nc2c(cc1-c1ccc3c(cnn3-c3cc(O)n[s+]3[O-])c1)OCCN2C (centres unmarked) [Example 185]	< 1000 nM
Cn1cc(-c2cccc3c2cnn3-c2cc(O)n[s+]2[O-])cn1 (centres unmarked) [Example 101]	1000 to 5000 nM
[O-][s+]1nc(O)cc1-n1ncc2cc(-c3ccc(F)cc3)ccc21 (centres unmarked) [Example 85]	< 1000 nM
O=C(NC1CCCCC1)N1CCC(c2ccc3c(cnn3-c3cc(O)n[s+]3[O-])c2)CC1 (centres unmarked) [Example 159]	5000 to 10000 nM
O=c1ccc(-c2ccc3c(cnn3-c3cc(O)n[s+]3[O-])c2)c[nH]1 (centres unmarked) [Example 125]	1000 to 5000 nM
